Read-outs that look alike come from different tables or passages of the source.
Key:
Type in all cases: biochemical
B. levii = conditions: β-naphthylamine liberated after 60 minutes, 37° C.
How it was run: (§1)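 Hydrolysis of N-CBz-glycyl-glycyl-L-arginine-β-naphthylamide over 1 h at 37 °C, then colour developed with Fast Garnet GBC (0.5 mg/ml) in 1M acetate pH 4.2 with 10% Tween 20 for 15 min at room temperature. Absorbance read at 525 nm against an enzyme-free control; activity given as nmol β-naphthylamine released in 60 min.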

B. loescheii = conditions: β-naphthylamine liberated after 60 minutes, 37° C.
How it was run: as §1

Bacteroides gingivalis = conditions: β-naphthylamine liberated after 60 minutes, 37° C.
How it was run: as §1

B. corporis = experiment: Aminopeptidase activity on β-naphthylamide substrates; conditions: strain ATCC 33547; β-naphthylamine liberated after 60 minutes, 37° C.
How it was run: as §1

B. denticola = experiment: as above; conditions: strain ATCC 33185; β-naphthylamine liberated after 60 minutes, 37° C.
How it was run: as §1

B. intermedius = experiment: as above; conditions: strain ATCC 25611; β-naphthylamine liberated after 60 minutes, 37° C.
How it was run: as §1

B. melaninogenicus = experiment: as above; conditions: strain ATCC 25845; β-naphthylamine liberated after 60 minutes, 37° C.
How it was run: as §1

C. sputigena = experiment: as above; conditions: strain ATCC 33123; β-naphthylamine liberated after 60 minutes, 37° C.
How it was run: as §1

"Anaerobic vibrio" = conditions: strain SN2T2; β-naphthylamine liberated after 60 minutes, 37° C.
How it was run: (§2)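 Enzyme plus N-CBz-glycyl-glycyl-L-arginine-β-naphthylamide incubated 1 h at 37° C. Fast Garnet GBC (0.5 mg/ml) in 1M acetate pH 4.2 with 10% Tween 20 added; stood 15 min at RT. A525 read; activity given as nmol β-naphthylamine liberated in 60 min.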

A. seminis = conditions: strain ATCC 15768; β-naphthylamine liberated after 60 minutes, 37° C.
How it was run: as §2

A. viscosus = conditions: β-naphthylamine liberated after 60 minutes, 37° C.
How it was run: as §2

[1] = tested on: Actinobacillus actinomycetemcomitans; conditions: β-naphthylamine liberated after 60 minutes, 37° C.
How it was run: as §2

Actinomyces israeli = conditions: β-naphthylamine liberated after 60 minutes, 37° C.
How it was run: as §2

Campylobacter sputorum = conditions: strain Ba1-21; β-naphthylamine liberated after 60 minutes, 37° C.
How it was run: as §2

Eikenella corrodens = conditions: strain BP1-6; β-naphthylamine liberated after 60 minutes, 37° C.
How it was run: as §2

Fusobacterium nucleatum = conditions: β-naphthylamine liberated after 60 minutes, 37° C.
How it was run: as §2

S. mutans = conditions: strain ATCC 25175; β-naphthylamine liberated after 60 minutes, 37° C.
How it was run: as §2

S. sanguis = conditions: β-naphthylamine liberated after 60 minutes, 37° C.
How it was run: as §2

Streptococcus mitis = conditions: β-naphthylamine liberated after 60 minutes, 37° C.
How it was run: as §2

V. parvula = conditions: strain ATCC 10790; β-naphthylamine liberated after 60 minutes, 37° C.
How it was run: as §2

Veillonella sp. = conditions: strain SE1M2; β-naphthylamine liberated after 60 minutes, 37° C.
How it was run: as §2

A. equuli = experiment: Aminopeptidase activity on β-naphthylamide substrates; conditions: strain ATCC 19392; β-naphthylamine liberated after 60 minutes, 37° C.
How it was run: as §2

A. suis = experiment: as above; conditions: strain ATCC 15557; β-naphthylamine liberated after 60 minutes, 37° C.
How it was run: as §2

F. periodonticum = experiment: as above; conditions: strain EK1-15; β-naphthylamine liberated after 60 minutes, 37° C.
How it was run: as §2

Haemophilus aphrophilus = experiment: as above; conditions: β-naphthylamine liberated after 60 minutes, 37° C.
How it was run: as §2

L. fermentum = experiment: as above; conditions: strain ATCC 11581; β-naphthylamine liberated after 60 minutes, 37° C.
How it was run: as §2

Lactobacillus casei = experiment: as above; conditions: β-naphthylamine liberated after 60 minutes, 37° C.
How it was run: as §2

S. salivarius = experiment: as above; conditions: β-naphthylamine liberated after 60 minutes, 37° C.
How it was run: as §2

Q: Which results are given for `Cl.N=C(N)NCCC[C@H](NC(=O)CNC(=O)CNC(=O)OCc1ccccc1)C(=O)Nc1ccc2ccccc2c1` [N-CBz-Gly-Gly-Arg, N-carbobenzoxy-glycyl-glycyl-L-arginine-β-naphthylamide hydrochloride]?
A: Aminopeptidase activity (B. levii; strain 18-1-5): 0 nmol; Aminopeptidase activity (B. levii; strain 18-1-8): 1 nmol; Aminopeptidase activity (B. loescheii; strain ATCC 15930): 1 nmol; Aminopeptidase activity (B. loescheii; strain VPI4196): 0 nmol; Aminopeptidase activity (Bacteroides gingivalis; strain 9-14K-1): 61 nmol; Aminopeptidase activity (Bacteroides gingivalis; strain 11-1-2): 92 nmol; Aminopeptidase activity (Bacteroides gingivalis; strain 381): 91 nmol; Aminopeptidase activity (Bacteroides gingivalis; strain 1021): 44 nmol; Aminopeptidase activity (Bacteroides gingivalis; strain ATCC 33277): 84 nmol; Aminopeptidase activity (Bacteroides gingivalis; strain FAYE 19m-1): 143 nmol; Aminopeptidase activity (B. corporis): 1 nmol; Aminopeptidase activity (B. denticola): 0 nmol; Aminopeptidase activity (B. intermedius): 0 nmol; Aminopeptidase activity (B. melaninogenicus): 0 nmol; Aminopeptidase activity (C. sputigena): 5 nmol; Aminopeptidase activity ("Anaerobic vibrio"): 1 nmol; Aminopeptidase activity (A. seminis): 1 nmol; Aminopeptidase activity (A. viscosus; strain ATCC 19246): 0 nmol; Aminopeptidase activity (A. viscosus; strain T14V): 0 nmol; Aminopeptidase activity ([1]; strain 67): 0 nmol; Aminopeptidase activity ([1]; strain 75): 0 nmol; Aminopeptidase activity ([1]; strain ATCC 29523): 0 nmol; Aminopeptidase activity ([1]; strain NCTC 9709): 1 nmol; Aminopeptidase activity ([1]; strain Y4): 0 nmol; Aminopeptidase activity (Actinomyces israeli; strain ATCC 12103): 0 nmol; Aminopeptidase activity (Actinomyces israeli; strain DK2-3): 0 nmol; Aminopeptidase activity (Campylobacter sputorum): 0 nmol; Aminopeptidase activity (Eikenella corrodens): 0 nmol; Aminopeptidase activity (Fusobacterium nucleatum; strain 2): 3 nmol; Aminopeptidase activity (Fusobacterium nucleatum; strain ATCC 25586): 0 nmol; Aminopeptidase activity (Fusobacterium nucleatum; strain D31A-24): 2 nmol; Aminopeptidase activity (S. mutans): 0 nmol; Aminopeptidase activity (S. sanguis; strain ATCC 10556): 0 nmol; Aminopeptidase activity (S. sanguis; strain ATCC 10557): 0 nmol; Aminopeptidase activity (Streptococcus mitis; strain ATCC 9815): 0 nmol; Aminopeptidase activity (Streptococcus mitis; strain ATCC 15909): 0 nmol; Aminopeptidase activity (Streptococcus mitis; strain ATCC 15912): 0 nmol; Aminopeptidase activity (V. parvula): 0 nmol; Aminopeptidase activity (Veillonella sp.): 0 nmol; Aminopeptidase activity (A. equuli): 0 nmol; Aminopeptidase activity (A. suis): 0 nmol; Aminopeptidase activity (F. periodonticum): 0 nmol; Aminopeptidase activity (Haemophilus aphrophilus; strain ATCC 13252): 1 nmol; Aminopeptidase activity (Haemophilus aphrophilus; strain ATCC 19415): 1 nmol; Aminopeptidase activity (Haemophilus aphrophilus; strain NCTC 5908): 0 nmol; Aminopeptidase activity (L. fermentum): 0 nmol; Aminopeptidase activity (Lactobacillus casei; strain ATCC 7469): 0 nmol; Aminopeptidase activity (Lactobacillus casei; strain ATCC 11578): 0 nmol; Aminopeptidase activity (Lactobacillus casei; strain ATCC 11582): 0 nmol; Aminopeptidase activity (S. salivarius; strain ATCC 9759): 0 nmol; Aminopeptidase activity (S. salivarius; strain ATCC 25975): 0 nmol

— patent publication US4994376A, “Detection of bacteroides gingivalis” (priority 1987, dated 1991)
